The series is described as follows: physchem. As to conditions: octan-1-ol/water, pH 7.4.

Each structure is given as a SMILES string.

As a reminder, the logD is the decadic logarithm of the distribution of all forms, ionised or not, between an organic phase and buffer at a given pH.

`CCC[C@@H](CN1CCCC1)N(C)C(=O)Cc1ccc(Cl)c(Cl)c1`: the logD turned out to be 2.27.
`CCCCCCN1CC[C@]2(C)c3cc(O)ccc3CC1[C@@H]2C` showed a logD of 2.5.
`CCOC(=O)C1(c2cccc(O)c2)CCCN(CC2CC2)C1` (configuration not stated) returned a logD of 1.89.
In the case of `Cc1ccc(CN2[C@@H]3CC[C@H]2C[C@@H](Oc2cccc(C(N)=O)c2)C3)s1` it was 2.39; in that of `NC(=O)c1cccc(S[C@H]2C[C@H]3CC[C@@H](C2)N3Cc2ccccc2)c1`, 2.22; in that of `NC(=O)c1cc(F)cc(O[C@H]2C[C@H]3CC[C@@H](C2)N3Cc2ccccc2)c1`, 2.14.
The compound `Cc1cc(O[C@H]2C[C@H]3CC[C@@H](C2)N3Cc2ccccc2)cc(C(N)=O)c1` came in with a logD of 2.08.
The compound `Cc1cc(C(N)=O)ccc1O[C@H]1C[C@H]2CC[C@@H](C1)N2Cc1ccccc1` gave a logD of 2.23.
In the case of `CNC(=O)c1cccc(O[C@H]2C[C@H]3CC[C@@H](C2)N3Cc2ccccc2)c1` it was 1.93; in that of `Oc1cccc(O[C@H]2C[C@H]3CC[C@@H](C2)N3Cc2ccccc2)c1`, 2.3; in that of `Cc1ccc(CN2[C@@H]3CC[C@H]2C[C@H](Oc2cccc(C(N)=O)c2)C3)s1`, 2.44.
With `NC(=O)c1cccc(O[C@@H]2C[C@H]3CC[C@@H](C2)N3CCc2ccccc2)c1`, the logD was determined as 2.
With `CCN(CC)C(=O)c1ccc(C(=C2CCNCC2)c2ccc(Cl)c(Cl)c2)cc1` the figure was 2.4; with `CCN1CCN(C(=O)c2cc3cc(F)ccc3[nH]2)CC1`, 2.28; with `CC(CC(=O)NCc1ccccc1)C1CCCO1` (configuration not stated), 2.1.
Compound `O=c1cc(O)oc2c1c(=O)n(Cc1ccccc1)c1ccccc21` yielded a logD of 1.97.
As for `CCc1c(C(=O)C(N)=O)c2c(OCC(N)=O)cccc2n1Cc1ccccc1`, the logD was found to be 2.1.
`Nc1nnc(Cc2ccc(Cl)cc2)s1` had a logD of 2.34.
In the case of `O=C1O[C@]2(CN3CCC2CC3)CN1c1ccc(Br)s1` it was 2.
`CCN(CC)C(=O)c1ccc([C@H](c2cccc(NC(=O)C3CC3)c2)N2CCN(CCOC)CC2)cc1` gave a logD of 2.35.
On to `CCOC(=O)Nc1cccc([C@@H](c2ccc(C(=O)N(C)CC)cc2)N2CCN(Cc3nc[nH]c3C)CC2)c1`, for which the pH-dependent lipophilicity (logD) was 2.32.
Regarding `CCOC(=O)Nc1cccc([C@@H](c2ccc(C(=O)N(C)CC)cc2)N2CCN(Cc3c[nH]c(C)n3)CC2)c1`, the logD is 2.11.
As for `CNC(=O)c1ccc(Oc2ccc(C#C[C@]3(O)CN4CCC3CC4)cc2)cc1`, the logD amounted to 1.99.
As to `CN(C)C(=O)c1ccc(C(=C2CCN(Cc3cscn3)CC2)c2cccc3cccnc23)cc1`, the log distribution coefficient (logD) is 2.3.
In the case of `O=C(c1ccc(C(=C2CCN(Cc3cscn3)CC2)c2cccc3cccnc23)cc1)N1CCOCC1` it was 2.12; in that of `CN1CCN(C(=O)c2ccc(C(=C3CCN(Cc4cscn4)CC3)c3cccc4cccnc34)cc2)CC1`, 1.98; in that of `O=C(c1ccc(C(=C2CCN(Cc3cscn3)CC2)c2cccc3cccnc23)cc1)N1CCC(O)CC1`, 1.89.
In the case of `O=C(N[C@H]1CN2CCC1CC2)c1ccc(-c2ccccc2)s1` it was 1.9.
With `Nc1nc(Nc2ccc3nc(-c4ccc(F)cc4)cc(N)c3c2)cc(-c2cccc(Cl)c2)n1` the figure was 2.5.
For `Clc1ccc(C2CC=CCNC2)cc1Cl` (configuration not stated), the logD was 1.86.
With `Clc1ccc([C@H]2CC=CCNC2)cc1Cl` the figure was 1.95; with `COC(=O)N1CCN(C(=O)Cc2ccc(Cl)c(Cl)c2)[C@H](CN2CCCC2)C1`, 2.05.
In turn, `O=C1CC(c2ccc(O)cc2)Oc2cc(O)cc(O)c21` (configuration not stated) had a logD of 2.6.
In the case of `CNC1=Nc2ncccc2C(c2ccns2)=NC1c1cccs1` (configuration not stated), the logD was 2.15.
On to `CNC1=Nc2ncccc2C(c2ccco2)=NC1c1cccs1` (configuration not stated), for which the pH-dependent lipophilicity (logD) was found to be 1.85.
With `Cc1cc(=O)[nH]c2sc(C(=O)c3ccc(Br)cc3)c(N)c12` the figure was 2.57; with `COC(=O)N1CCN(C(=O)Cc2ccc(Cl)c(Cl)c2)[C@@H](CN2CCCC2)C1`, 1.97.

These data come from ChEMBL document CHEMBL3301361, “Experimental in vitro DMPK and physicochemical data on a set of publicly disclosed compounds”.
